In patent publication US20260250318A1, “COMPOSITIONS AND METHODS FOR CROSSING THE BLOOD BRAIN BARRIER” (VOYAGER THERAPEUTICS, INC., priority 2022, published 2026):

How the values were obtained:
[1] = test system: brains, heart, liver, muscle, and DRG of the NHPs; assay: Maturation of TTM-001 and TTM-002 capsids, NGS enrichment in NHP tissues; format: in vivo; conditions: relative to AAV9 control
Summary of the method: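 Variants carry mutations within and flanking the loop IV peptide insert: positions 450–466 were triplet-randomized, while positions 449–466 received low-frequency point mutations. The combined pool went into two NHPs, and each peptide was scored by NGS enrichment ratio against AAV9.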

brain = assay: Matured TTM-001 and TTM-002 variants, NGS enrichment in mouse brain; format: in vivo, mice; conditions: relative to AAV9 control
[2] = NGS fold-enrichment of RNA, NHP brain
[3] = NGS fold-enrichment, NHP liver DNA
[4] = NGS fold-enrichment, NHP liver RNA
[5] = NGS fold-enrichment, NHP muscle
[6] = NGS fold-enrichment, mouse brain
[7] = NGS fold-enrichment, DRG of NHPs
[8] = NGS fold-enrichment, RNA, brain of NHPs
[9] = NGS fold-enrichment, heart of NHPs
[10] = NGS fold-enrichment, liver DNA of NHPs
[11] = NGS fold-enrichment, liver RNA of NHPs
[12] = NGS fold-enrichment, muscle of NHPs
[13] = NGS fold-enrichment, brain of mice
[14] = NGS fold-enrichment of matured AAV capsid variants, NHP brain, RNA

Sequence	Fold Enrichment relative to AAV9, Brain (NHP) [1, 2]	Fold Enrichment relative to AAV9, DRG (NHP) ([1]; NGS fold-enrichment, NHP DRG)	Fold Enrichment relative to AAV9, Heart (NHP) ([1]; NGS fold-enrichment, NHP heart)	Fold Enrichment relative to AAV9, Liver DNA (NHP) [1, 3]	Fold Enrichment relative to AAV9, Liver RNA (NHP) [1, 4]	Fold Enrichment relative to AAV9, Muscle (NHP) [1, 5]	Fold Enrichment relative to AAV9, Brain (Mouse) (brain; [6])	Fold Enrichment relative to AAV9, DRG (NHP) [1, 7]	Fold Enrichment relative to AAV9, Brain (NHP) [1, 8]	Fold Enrichment relative to AAV9, Heart (NHP) [1, 9]	Fold Enrichment relative to AAV9, Liver DNA (NHP) [1, 10]	Fold Enrichment relative to AAV9, Liver RNA (NHP) [1, 11]	Fold Enrichment relative to AAV9, Muscle (NHP) [1, 12]	Fold Enrichment relative to AAV9, Brain (Mouse) (brain; [13])	also measured
KAISGHDSPHKSGLNQQT	78.846 fold	0.000 fold	0.079 fold	0.015 fold	0.000 fold	0.000 fold	11.045 fold	–	–	–	–	–	–	–	–
KTSNGGGSPHSKAQNLQT	–	–	–	–	–	–	–	0.000 fold	68.311 fold	0.052 fold	0.000 fold	0.000 fold	0.000 fold	124.871 fold	–
KTDKVSGSPHSKAQNQQT	–	–	–	–	–	–	–	0.000 fold	60.935 fold	0.015 fold	0.128 fold	0.765 fold	0.000 fold	146.657 fold	–
KTEGLSGSPHSKAQNQQT	–	–	–	–	–	–	–	–	–	–	–	–	–	–	Fold Enrichment relative to AAV9, Brain (NHP) [1, 14]: 52.891 fold; Fold Enrichment relative to AAV9, DRG (NHP) ([1]; NHP DRG): 0.000 fold; Fold Enrichment relative to AAV9, Heart (NHP) ([1]; NHP heart): 0.000 fold; Fold Enrichment relative to AAV9, Liver DNA (NHP) ([1]; NHP liver, DNA): 0.155 fold; Fold Enrichment relative to AAV9, Liver RNA (NHP) ([1]; NHP liver, RNA): 0.104 fold; Fold Enrichment relative to AAV9, Muscle (NHP) ([1]; NHP muscle): 0.020 fold; Fold Enrichment relative to AAV9, Brain (Mouse) (brain; mouse brain): 104.529 fold
KTTNGHDSPHKSGQTQLT	115.637 fold	0.000 fold	0.283 fold	0.321 fold	0.052 fold	0.000 fold	17.885 fold	–	–	–	–	–	–	–	–
EAINGSGSPHSKAQNQQT	–	–	–	–	–	–	–	–	–	–	–	–	–	–	Fold Enrichment relative to AAV9, Brain (NHP) [1, 14]: 50.243 fold; Fold Enrichment relative to AAV9, DRG (NHP) ([1]; NHP DRG): 0.629 fold; Fold Enrichment relative to AAV9, Heart (NHP) ([1]; NHP heart): 0.094 fold; Fold Enrichment relative to AAV9, Liver DNA (NHP) ([1]; NHP liver, DNA): 1.519 fold; Fold Enrichment relative to AAV9, Liver RNA (NHP) ([1]; NHP liver, RNA): 0.057 fold; Fold Enrichment relative to AAV9, Muscle (NHP) ([1]; NHP muscle): 0.000 fold; Fold Enrichment relative to AAV9, Brain (Mouse) (brain; mouse brain): 117.305 fold
KSINGHDSPHKSGQYQHT	88.195 fold	0.000 fold	0.099 fold	0.149 fold	0.000 fold	0.000 fold	14.485 fold	–	–	–	–	–	–	–	–
KTVNGGGSPHSKAQSQQT	–	–	–	–	–	–	–	0.000 fold	67.634 fold	0.055 fold	0.210 fold	0.000 fold	0.000 fold	160.711 fold	–
KTINGSGSPHSKAQPART	–	–	–	–	–	–	–	–	–	–	–	–	–	–	Fold Enrichment relative to AAV9, Brain (NHP) [1, 14]: 55.513 fold; Fold Enrichment relative to AAV9, DRG (NHP) ([1]; NHP DRG): 0.000 fold; Fold Enrichment relative to AAV9, Heart (NHP) ([1]; NHP heart): 0.000 fold; Fold Enrichment relative to AAV9, Liver DNA (NHP) ([1]; NHP liver, DNA): 0.991 fold; Fold Enrichment relative to AAV9, Liver RNA (NHP) ([1]; NHP liver, RNA): 1.294 fold; Fold Enrichment relative to AAV9, Muscle (NHP) ([1]; NHP muscle): 0.328 fold; Fold Enrichment relative to AAV9, Brain (Mouse) (brain; mouse brain): 127.301 fold
KTINAHDSPHKIGQNHQT	106.832 fold	0.000 fold	0.121 fold	0.231 fold	0.000 fold	0.000 fold	5.074 fold	–	–	–	–	–	–	–	–
KTFSGSGSPHSKAQNLQT	–	–	–	–	–	–	–	0.000 fold	70.035 fold	0.327 fold	0.228 fold	0.000 fold	0.303 fold	70.917 fold	–
KTINGGGSPHSKALNQQN	77.822 fold	0.000 fold	0.131 fold	0.274 fold	0.000 fold	0.000 fold	69.884 fold	0.000 fold	77.822 fold	0.131 fold	0.274 fold	0.000 fold	0.000 fold	69.884 fold	–
KTSNGYDSPHKSGQKQQT	77.001 fold	0.032 fold	0.286 fold	0.016 fold	0.000 fold	0.000 fold	8.813 fold	–	–	–	–	–	–	–	–
KTINGSGSPHSKRPEQQT	80.418 fold	0.000 fold	0.013 fold	0.361 fold	0.149 fold	0.000 fold	50.319 fold	0.000 fold	80.418 fold	0.013 fold	0.361 fold	0.149 fold	0.000 fold	50.319 fold	–
TTINGHDSPHKSGQNQQT (peptide inserted in AAV capsid)	108.963 fold	1.512 fold	3.445 fold	1.109 fold	0.659 fold	0.869 fold	14.788 fold	–	–	–	–	–	–	–	–
KTIIKNGSPHSKAQNQQT	–	–	–	–	–	–	–	–	–	–	–	–	–	–	Fold Enrichment relative to AAV9, Brain (NHP) [1, 14]: 50.587 fold; Fold Enrichment relative to AAV9, DRG (NHP) ([1]; NHP DRG): 0.000 fold; Fold Enrichment relative to AAV9, Heart (NHP) ([1]; NHP heart): 0.000 fold; Fold Enrichment relative to AAV9, Liver DNA (NHP) ([1]; NHP liver, DNA): 0.751 fold; Fold Enrichment relative to AAV9, Liver RNA (NHP) ([1]; NHP liver, RNA): 0.000 fold; Fold Enrichment relative to AAV9, Muscle (NHP) ([1]; NHP muscle): 0.000 fold; Fold Enrichment relative to AAV9, Brain (Mouse) (brain; mouse brain): 75.547 fold
KTINGSGSPHSKAQVPST	–	–	–	–	–	–	–	–	–	–	–	–	–	–	Fold Enrichment relative to AAV9, Brain (NHP) [1, 14]: 54.366 fold; Fold Enrichment relative to AAV9, DRG (NHP) ([1]; NHP DRG): 0.000 fold; Fold Enrichment relative to AAV9, Heart (NHP) ([1]; NHP heart): 1.001 fold; Fold Enrichment relative to AAV9, Liver DNA (NHP) ([1]; NHP liver, DNA): 0.139 fold; Fold Enrichment relative to AAV9, Liver RNA (NHP) ([1]; NHP liver, RNA): 0.202 fold; Fold Enrichment relative to AAV9, Muscle (NHP) ([1]; NHP muscle): 0.000 fold; Fold Enrichment relative to AAV9, Brain (Mouse) (brain; mouse brain): 117.223 fold
